Experimental data as given in patent US8927547B2, “Pyrimidine derivatives” (Noviga Research AB, priority 2010, dated 2015).
pEC50: −log10 of the molar value.

Legend:
Type in all cases: cell-based
MCF7 = experiment: FMCA, MCF7 breast cancer; settings: Homo sapiens, read-out: EC50 (μM) in various cancer cell lines: MCF7
From the text: (§1) The Fluorometric Microculture Cytotoxicity Assay, FMCA, is a three day non-clonogenic microplate-based cell viability assay used for measurement of the cytotoxic and/or cytostatic effect of compounds in vitro (Lindhagen, E., et al. Nat Protoc, 2008. 3(8): p. 1364-9). FMCA (Larsson, R. and P. Nygren, Anticancer Res, 1989. 9(4): p. 1111-9) represents a valuable method to measure cytotoxicity in a number of cell types, both cell lines and primary cells from patients (Larsson, R., et al., Int J Cancer, 1992. 50(2): p. 177-85; Fridborg, H., et al., Eur J Cancer, 1999. 35(3): p. 424-32; Dhar, S., et al., Br J Cancer, 1996. 74(6): p. 888-96).
(§2) FMCA is based on the principle that fluorescein diacetate (FDA) is converted to the fluorescent probe fluorescein by esterases in the plasma membranes of living cells. For experiments, 96 or 384-well microplates are prepared with compounds and stored at −70° C. until use. Cells are then seeded into the drug-prepared plates and placed in an incubator for 72 h. On the last day of incubation, the plates are washed and a buffer containing FDA is added and incubated with the cells for 45 minutes. Finally the fluorescence per well is measured in a fluorometer and a Survival Index % (SI) for each compound-treated well is calculated with the equation: Compound-treated cells minus blank divided by control cells minus blank. A high SI-value indicates a large percentage of living cells and vice versa.
(§3) Compounds of the invention as well as kinase inhibitors sorafenib, sunitinib, dasatinib, and pazopanib (reference compounds) were diluted with PBS to a concentration which was ten-times higher than the desired starting concentration. Then, a Biomek 2000 liquid handling system was employed to serially dilute the compounds in a deep-well 384-well plate. From this plate, assay plates containing 5 μl compound per well were prepared with the Biomek 2000. Certain compounds precipitated when diluted with PBS, and these compounds were therefore prepared in a 96-well plate manually as described above using culture medium RPMI 1640 instead of PBS.
(§4) The compounds were also tested at five concentrations, with five times serial dilution on the following cell types: CCRF-CEM, hTERT-RPE1 (normal retinal epithelial cells), hRPTEpiC (normal renal cells) and PBMC (peripheral blood mononuclear cells). Each experiment was performed three times, except for PBMC and hRPTEpiC, which were performed twice. SI-values were calculated, graphs were plotted using GraphPadPrism 5.0 (GraphPad Software Inc. La Jolla, Calif.) and EC50-values for each cell type and compound were determined from the curves.
(§5) The compounds of the invention were also tested on further cancer cell lines related to colon cancer (HCT116; see e.g Brattain M G, et al. Cancer Res. 1981, 41, 1751-1756), breast cancer (MCF7; see e.g. Soule H D, et al. J. Natl. Cancer Inst. 1973, 51, 1409-1416), teniposide-resistant leukaemia (CEM/VM1; see e.g. Danks M K et al. Cancer Res. 1987, 47, 1297-1301), lung cancer (H69; see e.g. Gazdar A F, et al. Cancer Res. 1980, 40, 3502-3507), doxorubicin-resistant lung cancer (H69AR; see e.g. Mirski S E, et al. Cancer Res. 1987, 47, 2594-2598), myeloma (RPMI 8226; see e.g. Matsuoka Y, et al. Proc. Soc. Exp. Biol. Med. 1967, 125, 1246-1250), doxorubicin-resistant myeloma (8226/Dox40; see e.g. Dalton W S et al. Blood 1989, 15,747-752), lymphoma (U-937, see e.g. Sundstrom C, et al. Int. J. Cancer 1976, 17, 565-577), vincristin-resistant lymphoma (U-937-vcr; see e.g. Botling J, et al. Int J Cancer 1994, 15; 58 (2), 269-274), ovarian cancer (A2780; see e.g. Hamilton T C, et al. Semin Oncol. 1984, 11, 285-298), doxorubicin-resistant ovarian cancer (A2780/Adr), cisplatin-resistant ovarian cancer (A2780/Cis; see e.g. Behrens B C, et al. Cancer Res. 1987, 47, 414-418), renal cancer (ACHN; see e.g. Borden E C, et al. Cancer Res. 1982, 42(12), 4948-4953), pancreatic cancer (PANC-1, BxPC-3, and MIA PaCa-2; see e.g. Lieber M, et al. Int. […]

U-937 = experiment: FMCA, U-937 lymphoma; settings: Homo sapiens, read-out: EC50 (μM) in various cancer cell lines: U-937
From the text: as §1, §2, §3, §4, §5

HCT116 = experiment: FMCA, HCT116 colon cancer; settings: Homo sapiens, HCT-116, read-out: EC50 (μM) in various cancer cell lines: HCT116
From the text: as §1, §2, §3, §4, §5

A2780 = experiment: FMCA, A2780 ovarian cancer; settings: Homo sapiens, read-out: EC50 (μM) in various cancer cell lines: A2780
From the text: as §1, §2, §3, §4, §5

8226/Dox40 = experiment: FMCA, 8226/Dox40 doxorubicin-resistant myeloma; settings: read-out: EC50 (μM) in various cancer cell lines: 8226/Dox40
From the text: as §1, §2, §3, §4, §5

[1] = tested on: CCRF-CEM cancer cells - leukaemia; experiment: Fluorometric Microculture Cytotoxicity Assay (FMCA), CCRF-CEM; settings: Homo sapiens, 72 h incubation
From the text: as §1, §2
In subsequent experiments, compounds were tested, along with kinase inhibitors (dasatinib, pazopanib, sorafenib, and sunitinib) as described above. Initially, the acute lymphoblastic leukaemia cell line CCRF-CEM (see e.g. Foley G E, et al. Cancer 1965, 18, 522-529) was used throughout. In the assay plates, medium was added to six empty wells (blank wells) and wells were filled with PBS and cell suspension and served as control wells. SI-values were then calculated for each compound-treated well as described above. All experiments were conducted twice and a new batch of plates was prepared for each experiment.
For dose-response experiments, 384-well plates were prepared as follows:
as §3, §4

ACHN = experiment: FMCA, ACHN renal cancer; settings: Homo sapiens, read-out: EC50 (μM) in various cancer cell lines: ACHN
From the text: as §1, §2, §3, §4, §5

A2780/Cis = experiment: FMCA, A2780/Cis cisplatin-resistant ovarian cancer; settings: A2780cis, read-out: EC50 (μM) in various cancer cell lines: A2780/Cis
From the text: as §1, §2, §3, §4
(§6) The compounds of the invention were also tested on further cancer cell lines related to colon cancer (HCT116; see e.g Brattain M G, et al. Cancer Res. 1981, 41, 1751-1756), breast cancer (MCF7; see e.g. Soule H D, et al. J. Natl. Cancer Inst. 1973, 51, 1409-1416), teniposide-resistant leukaemia (CEM/VM1; see e.g. Danks M K et al. Cancer Res. 1987, 47, 1297-1301), lung cancer (H69; see e.g. Gazdar A F, et al. Cancer Res. 1980, 40, 3502-3507), doxorubicin-resistant lung cancer (H69AR; see e.g. Mirski S E, et al. Cancer Res. 1987, 47, 2594-2598), myeloma (RPMI 8226; see e.g. Matsuoka Y, et al. Proc. Soc. Exp. Biol. Med. 1967, 125, 1246-1250), doxorubicin-resistant myeloma (8226/Dox40; see e.g. Dalton W S et al. Blood 1989, 15,747-752), lymphoma (U-937, see e.g. Sundstrom C, et al. Int. […]

H69 = experiment: FMCA, H69 lung cancer; settings: Homo sapiens, NCI-H69, read-out: EC50 (μM) in various cancer cell lines: H69
From the text: as §1, §2, §3, §4, §5

CEM/VM1 = experiment: FMCA, CEM/VM1 teniposide-resistant leukaemia; settings: Homo sapiens, read-out: EC50 (μM) in various cancer cell lines: CEM/VM1
From the text: as §1, §2, §3, §4, §5

RPMI 8226 = experiment: FMCA, RPMI 8226 myeloma; settings: Homo sapiens, read-out: EC50 (μM) in various cancer cell lines: RPMI 8226
From the text: as §1, §2, §3, §4, §5

U-937-vcr = experiment: FMCA, U-937-vcr vincristin-resistant lymphoma; settings: read-out: EC50 (μM) in various cancer cell lines: U-937-ver
From the text: as §1, §2, §3, §4, §5

A2780/Adr = experiment: FMCA, A2780/Adr doxorubicin-resistant ovarian cancer; settings: read-out: EC50 (μM) in various cancer cell lines: A2780/Adr
From the text: as §1, §2, §3, §4, §6

H69AR = experiment: FMCA, H69AR doxorubicin-resistant lung cancer; settings: Homo sapiens, read-out: EC50 (μM) in various cancer cell lines: H69 AR
From the text: as §1, §2, §3, §4, §5

EC50 (MCF7) | EC50 (U-937) | EC50 (HCT116) | EC50 (A2780) | EC50 (8226/Dox40) | EC50 (ACHN) | EC50 (A2780/Cis) | EC50 (H69) | EC50 (CEM/VM1) | EC50 (RPMI 8226) | EC50 (U-937-vcr) | EC50 (A2780/Adr) | EC50 (H69AR) | SMILES | pEC50 [1]
9 µM | 0.07 µM | 6.7 µM | 0.7 µM | 0.37 µM | 2.54 µM | 0.35 µM | 10.8 µM | 0.12 µM | 0.5 µM | 0.07 µM | 2.4 µM |  | c1cc(Nc2nccc(NCc3ccc4[nH]ccc4c3)n2)c2cc[nH]c2c1 [Example 1, N^4-(1H-indol-5-ylmethyl)-N^2-(1H-indol-4-yl)pyrimidine-2,4-diamine] | 6.48
4.43 µM | 0.19 µM | 0.51 µM | 0.28 µM | 0.41 µM | 1.26 µM | 0.22 µM | 9.35 µM | 0.21 µM | 0.23 µM | 0.19 µM | 0.6 µM | 0.46 µM | Cc1cc2cc(Nc3ccnc(NCc4ccc5[nH]ccc5c4)n3)ccc2[nH]1 [Example 24, N^2-(1H-indol-5-ylmethyl)-N^4-(2-methyl-1H-indol-5-yl)pyrimidine-2,4-diamine] | 6.42
2.33 µM | 0.08 µM | 1.33 µM | 0.29 µM | 1.19 µM | 1.6 µM |  | 4.18 µM | 0.05 µM | 0.23 µM | 0.32 µM |  | 0.29 µM | COc1ccc2[nH]cc(CCNc3nccc(NCc4ccc5[nH]c(C)cc5c4)n3)c2c1 [Example 64, N^2-[2-(5-methoxy-1H-indol-3-yl)ethyl]-N^4-(2-methyl-1H-indol-5-ylmethyl)pyrimidine-2,4-diamine] | 7.30
3.35 µM | 0.35 µM | 2.45 µM | 0.78 µM | 10 µM | 3.32 µM |  | 11.6 µM | 0.27 µM | 1.83 µM | 0.99 µM |  | 0.64 µM | COc1ccc2[nH]cc(CCNc3nccc(NCc4ccc5[nH]ncc5c4)n3)c2c1 [Example 66, N^4-(1H-indazol-5-ylmethyl)-N^2-[2-(5-methoxy-1H-indol-3-yl)ethyl]pyrimidine-2,4-diamine] | 6.68
12.4 µM | 0.22 µM | 2.47 µM | 1.37 µM | 24.4 µM | 5.43 µM |  | 37.2 µM | 0.33 µM | 5.01 µM | 1.74 µM |  | 0.71 µM | Cc1cc2cc(Nc3ccnc(NCc4ccc5[nH]cnc5c4)n3)ccc2[nH]1 [Example 67, N^2-(1H-benzo[d]imidazol-5-ylmethyl)-N^4-(2-methyl-1H-indol-5-yl)pyrimidine-2,4-diamine] | 6.68
3.08 µM | 0.19 µM | 3.09 µM | 0.34 µM | 1.1 µM | 1.59 µM |  | 12.7 µM | 0.22 µM | 0.7 µM | 0.4 µM |  | 0.34 µM | c1cc(Nc2nccc(NCc3ccc4[nH]ccc4c3)n2)c2cn[nH]c2c1 [Example 76, N^4-(1H-indol-5-ylmethyl)-N^2-(1H-indazol-4-yl)pyrimidine-2,4-diamine] | 6.64
 |  |  |  |  |  |  |  |  |  |  |  |  | Cc1cc(Nc2ccc3[nH]c(C)cc3c2)nc(NCc2ccc3[nH]ccc3c2)n1 [Example 83, N^2-(1H-indol-5-ylmethyl)-6-methyl-N^4-(2-methyl-1H-indol-5-yl)pyrimidine-2,4-diamine] | > 5.00
2.06 µM | 0.21 µM | 1.16 µM | 0.33 µM | 2.58 µM | 1.62 µM |  | 5.47 µM | 0.19 µM | 0.45 µM | 0.27 µM |  | 0.35 µM | COc1ccc2[nH]cc(CCNc3nc(C)cc(NCc4ccc5[nH]ccc5c4)n3)c2c1 [Example 84, N^4-(1H-indol-5-ylmethyl)-N^2-[2-(5-methoxy-1H-indol-3-yl)ethyl]-6-methylpyrimidine-2,4-diamine] | 7.40
 |  |  |  |  |  |  |  |  |  |  |  |  | COc1ccc2[nH]cc(CCNc3nc(Cc4ccccc4)cc(NCc4ccc5[nH]ccc5c4)n3)c2c1 [Example 85, N^4-(1H-indol-5-ylmethyl)-6-benzyl-N^2-[2-(5-methoxy-1H-indol-3-yl)ethyl]pyrimidine-2,4-diamine] | > 5.00
 |  |  |  |  |  |  |  |  |  |  |  |  | c1cc(Nc2ccc3[nH]cnc3c2)nc(NCc2ccc3[nH]ccc3c2)n1 [Example 95, N^2-(1H-indol-5-ylmethyl)-N^4-(1H-benzo[d]imidazol-5-yl)pyrimidine-2,4-diamine] | 6.05
 |  |  |  |  |  |  |  |  |  |  |  |  | Cc1nc2cc(Nc3ccnc(NCc4ccc5[nH]ccc5c4)n3)ccc2[nH]1 [Example 96, N^2-(1H-indol-5-ylmethyl)-N^4-(2-methyl-1H-benzo[d]imidazol-5-yl)pyrimidine-2,4-diamine] | 6.17
 |  |  |  |  |  |  |  |  |  |  |  |  | CNC(=O)c1cc(Oc2ccc(NC(=O)Nc3ccc(Cl)c(C(F)(F)F)c3)cc2)ccn1 [Ref. 1, sorafenib, reference compound] | 5.08
 |  |  |  |  |  |  |  |  |  |  |  |  | CCN(CC)CCNC(=O)c1c(C)[nH]c(/C=C2\C(=O)Nc3ccc(F)cc32)c1C [Ref. 2, sunitinib, reference compound] | 4.85
 |  |  |  |  |  |  |  |  |  |  |  |  | Cc1nc(Nc2ncc(C(=O)Nc3c(C)cccc3Cl)s2)cc(N2CCN(CCO)CC2)n1 [Ref. 3, dasatinib, reference compound] | 5.01
